Laboratory results: article PMC4595849, “Rational Design of Benzylidenehydrazinyl-Substituted Thiazole Derivatives as Potent Inhibitors of Human Dihydroorotate Dehydrogenase with in Vivo Anti-arthritic Activity” (Scientific Reports, 2015)
Values joined by “and” are separate entries in the source; they are usually repeats but may differ in a detail not shown here. Equal entries are not always repeated. Where two headings read alike, the source gives them in different places.

What was measured:
hDHODH (Met30-Arg396) [1] = target: T1, hDHODH (Met30-Arg396) (Homo sapiens, UniProt Q02127); experiment: hDHODH enzyme inhibition, DCIP assay; assay type: biochemical; settings: for LLE: LLE = pIC50 − clogP; for IC50: hDHODH, mean ± SD of three independent experiments, IC50 measured if inhibition rate at 10 μM was larger than 50%
T1 construct: hDHODH (Met30-Arg396) was expressed and purified in the same manner as described in our recently published work; made in house
T1 sequence (Q02127 29-395): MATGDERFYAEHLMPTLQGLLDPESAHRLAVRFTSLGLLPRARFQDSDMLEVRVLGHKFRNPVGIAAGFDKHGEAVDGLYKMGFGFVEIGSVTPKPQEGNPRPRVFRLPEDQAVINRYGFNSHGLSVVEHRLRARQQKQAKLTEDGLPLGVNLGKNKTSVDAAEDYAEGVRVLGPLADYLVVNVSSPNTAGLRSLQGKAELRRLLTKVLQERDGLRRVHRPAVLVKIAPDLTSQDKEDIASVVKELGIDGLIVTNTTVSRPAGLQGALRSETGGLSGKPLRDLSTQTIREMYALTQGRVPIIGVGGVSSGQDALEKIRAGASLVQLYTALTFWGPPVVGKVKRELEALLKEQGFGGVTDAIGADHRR
Excerpt: The plasmid coding for human DHODH was kindly provided by Prof. Jon Clardy (Harvard Medical School)[7]. hDHODH (Met30-Arg396) was expressed and purified in the same manner as described in our recently published work[38]. We determined the effect of benzylidenehydrazinyl-substituted thiazole derivatives to inhibit hDHODH by using a DCIP assay method.

hDHODH (Met30-Arg396) [2] = target: T1, hDHODH (Met30-Arg396); design: method as in PMID 22984987; settings: from earlier virtual screen; cited from earlier work
[3] = system: Wistar rats with collagen-induced arthritis (CIA); experiment: collagen-induced arthritis (CIA) rat efficacy study; assay type: in vivo; settings: for arthritis score: day 28, maximum score 8
Procedure: Compound 19 and methotrexate were injected intraperitoneally once per day for 28 days into the Wistar rats with collagen-induced arthritis (CIA). The swelling scores of the arthritis and morphological observations of the rats’ joint tissues were employed to examine the anti-arthritic effect of compound 19 (Fig. 5). With the onset of arthritis, the swelling scores were an indication of the disease states. The maximum score was 8, which is the sum of the scores from both hind paws of each rat and indicates a severe arthritis state. During the experiment, the control rats had normal eating patterns, shiny hair and continuously increasing body weight.
Adult male Wistar rats (120–140 g) were purchased from Shanghai SLRC Laboratory animal company and housed in standard pathogen-free cages. The environment was climate-controlled (20–25 °C, 50–60% relative humidity) with a 12-hour light and 12-hour dark cycle as described previously. Sterilized food and water were provided naturally. All procedures involving animals conform to the Chinese government guidelines for animal experiments, and were conducted with approval of the Institutional Animal Care and Use Committee of East China University of Science & Technology. Bovine type II collagen (CII, Chondrex, USA) was emulsified in the same manner as that conducted previously to get the CIA model. Specifically, 49 rats were randomly assigned into five groups: normal control (solvent, i.p., n = 6), CIA model (solvent, i.p., n = 11), Methotrexate-treated (0.3 mg/kg, i.p., n = 10), compound 19-treated (5 mg/kg, i.p., n = 11) and compound 19-treated (30 mg/kg, i.p., n = 11) groups. Methotrexate, reported to has a therapeutic effect on rheumatoid arthritis, was used as the positive control in this study. The main workflows of this experiment were consistent with that reported recently. During the 28 days of the experiment, compound 19 (5 mg/kg and 30 mg/kg) and Methotrexate (0.3 mg/kg) were injected intraperitoneally once every day. At the same time, the normal control group and model group were administered the same amount of solution. The solvent of 19 was made up of 5% DMSO, 45% saline and 50% PEG400.
In this study, the clinical-mimic arthritis was observed and the severity was assessed by the same criteria as that applied in reference 65: 0, normal, without any swelling; 1, mild swelling; 2, swelling; 3, significant swelling; 4, severe swelling. The maximum score was 8, which was the sum of the scores from both hind paws of each rat. When arthritic signs appeared, the incidence and severity of the arthritis in rats with different treatments were evaluated via arthritis scores recorded every 2 days under blinded conditions. Measurement of body weight was taken every 3 days. All Wistar rats were killed after 28 day’s trails. Pathological detections against the whole knee joints of the rats were conducted using the same method as described previously. Mean ± standard deviation […] was applied to present the data in this study. SPSS was used to evaluate the statistical significance of differences among the groups. P ≤ 0.05 was the threshold to be statistically significant.

in vivo = settings: male, Sprague-Dawley, rat, po, 10 mg/kg
Procedure: (§1) Male Sprague-Dawley rats were raised according to the Guide for the Care and Use of Laboratory Animals. […] Heparin sodium was applied as the anticoagulant of the blood samples. Based on the LC/MS/MS quantitative data, pharmacokinetic parameters were analyzed using WinNonlin5.2 with noncompartment model.

[4] = single dose pharmacokinetic study in rats (IV and PO); settings: male, Sprague-Dawley, rat, plasma, 1 mg/kg
Procedure: as §1

Row | SMILES | LLE (hDHODH (Met30-Arg396) [1]) | IC50 (hDHODH (Met30-Arg396) [1]) | also measured
1 | O=Cc1ccccc1/C=N/Nc1nc(-c2ccccc2)cs1 [Compound 7] | 2.92 | 365 ± 0.6 nM | IC50 (hDHODH (Met30-Arg396) [2]): 365 nM
2 | Oc1ccccc1/C=N/Nc1nc(-c2ccccc2)cs1 [Compound 8] | <0.17 | > 10000 nM | 
3 | Oc1c(Cl)cc(Cl)cc1/C=N/Nc1nc(-c2ccccc2)cs1 [Compound 9] | <−1.58 | > 10000 nM | 
4 | Oc1c(Cl)cc(Cl)cc1/C=N/Nc1nc(-c2ccc(Cl)cc2Cl)cs1 [Compound 10] | <−2.53 | > 10000 nM | 
5 | C/C(=N\Nc1nc(-c2ccc(Br)cc2)cs1)c1ccccc1O [Compound 11] | <−0.81 | > 10000 nM | 
6 | Brc1ccc(-c2csc(N/N=C/c3ccccc3)n2)cc1 [Compound 12] | <−0.42 | > 10000 nM | 
7 | Brc1ccc(-c2csc(N/N=C/c3ccco3)n2)cc1 [Compound 13] | <0 | > 10000 nM | 
8 | Cc1sc(N/N=C/c2cc([N+](=O)[O-])ccc2O)nc1-c1ccccc1 [Compound 14] | <−0.48 | > 10000 nM | 
9 | Cc1sc(N/N=C/c2ccccc2O)nc1-c1ccccc1 [Compound 15, (E)-2-((2-(5-methyl-4-phenylthiazol-2-yl)hydrazono)methyl)phenol] | 0.48 | 2437 ± 22.9 nM | inhibition of hDHODH (in words) (hDHODH (Met30-Arg396) [1]): moderate inhibition
10 | CC(C)c1ccc(-c2csc(N/N=C/c3ccccc3O)n2)cc1 [Compound 16, (E)-2-((2-(4-(4-isopropylphenyl)thiazol-2-yl)hydrazono)methyl)phenol] | <−1.23 | > 10000 nM | 
11 | Oc1ccccc1/C=N/Nc1nc(-c2ccc(Cl)c(Cl)c2)cs1 [Compound 17, (E)-2-((2-(4-(3,4-dichlorophenyl)thiazol-2-yl)hydrazono)methyl)phenol] | <−1.03 | > 10000 nM | 
12 | Oc1ccccc1/C=N/Nc1nc(-c2ccccc2Cl)cs1 [Compound 18, (E)-2-((2-(4-(2-chlorophenyl)thiazol-2-yl)hydrazono)methyl)phenol] | 0.76 | 1390 ± 38 nM | inhibition of hDHODH (in words) (hDHODH (Met30-Arg396) [1]): moderate inhibition
13 | O=C(O)c1ccccc1/C=N/Nc1nc(-c2ccccc2Cl)cs1 [Compound 19, (E)-2-((2-(4-(2-chlorophenyl)thiazol-2-yl)hydrazono)methyl)benzoic acid] | 3.59 | 32 nM and 32.2 nM | inhibition of hDHODH (in words) (hDHODH (Met30-Arg396) [1]): IC50 values in the double-digit nanomolar range; fold increase in potency compared to 18 (hDHODH (Met30-Arg396) [1]; hDHODH IC50 relative to hydroxy-substituted derivative 18): 43 fold; arthritis score ([3]; 5 mg/kg i.p. daily): around 5; arthritis score ([3]; 30 mg/kg i.p. daily): ~3; anti-arthritic effect (in words) ([3]; 5 and 30 mg/kg i.p. daily for 28 days): significant dose-dependent anti-arthritic effect; histological changes in joint tissues (H&E) ([3]; both dosages, compared to CIA rats): evidently alleviated; influence on body weight ([3]; i.p. daily for 28 days, versus model group): no obvious influence on increase in body weight; Cmax (in vivo): 5310 ± 1910 ng/mL; half-life [4]: 9.69 ± 3.15 h
14 | O=C(O)c1cccc(/C=N/Nc2nc(-c3ccccc3Cl)cs2)c1 [Compound 20, (E)-3-((2-(4-(2-chlorophenyl)thiazol-2-yl)hydrazono)methyl)benzoic acid] | <0.34 | > 10000 nM | inhibition of hDHODH (in words) (hDHODH (Met30-Arg396) [1]): loss of activity
